Laboratory results published in US20240254140A1, “COMPOUNDS AND THEIR USE IN THE TREATMENT OF BACTERIAL INFECTION” (Hoffmann-La Roche Inc., priority 2021, published 2024).

Tested on: Escherichia coli ATCC 25922
Experiment: Minimal Inhibitory Concentration (MIC) determination, broth microdilution
Assay type: cell-based
Conditions: strain Escherichia coli ATCC 25922; broth microdilution per CLSI M07-A10; 18-24 hours at 35±2° C.; lowest concentration for complete growth inhibition
Procedure, shortened: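 Broth microdilution followed CLSI M07-A10, with 2-fold compound dilutions and an inoculum from a 0.5 McFarland suspension diluted 1:200 in broth. Plates were incubated 18–24 h at 35±2° C in ambient air. MIC (μg/mL) was the lowest concentration giving no visible growth.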

C[C@H](C(=O)Nc1cc(F)c2c(c1)CC(CNCC[C@@H]1CN(c3cnc4c(n3)NC(=O)CO4)C(=O)O1)C2)N(C)C (stereo partly drawn) [Example 71, (2R)-2-(Dimethylamino)-N-[7-fluoro-2-[[2-[(5R)-2-oxo-3-(3-oxo-4H-pyrazino[2,3-b][1,4]oxazin-6-yl)oxazolidin-5-yl]ethylamino]methyl]indan-5-yl]propanamide]
Escherichia coli growth inhibition MIC: 0.125 µg/mL
